Experimental data: US11149008B2, “Sulfamide derivatives and preparation method and use thereof” (HitGen Ltd., priority 2015, dated 2021)

Key:
HCT-116 cells = assay: Cell growth inhibition measurement (CCK-8), HCT-116; format: cell-based; conditions: Homo sapiens, HCT-116, 72 h, highest EC50 measured during one or multiple operations, read-out: Inhibition activity against cancer cells, HCT-116 (EC50)
From the text: (§1) A HepG2 cell strain and an HCT-116 cell strain were purchased from Shanghai Institutes for Biological Sciences; a DMEM high-sugar culture medium and an MEM culture medium were purchased from Hyclone; fetal calf serum was purchased from Gibco; trypsin was purchased from Invitrogen Shanghai; a CCK-8 kit was purchased from Beyotime Institute of Biotechnology; and, the remaining cell culture mediums and other consumables were purchased from Corning China.
(§2) HepG2 cells and HCT-116 cells in the logarithmic growth phase were digested by trypsin. After the counting of uniform cell suspension, the cell density was adjusted as 1500 cells/well by a culture medium containing 10% serum. The cells were re-inoculated to a 96-well cell culture plate, and cultured to a volume of 200 μL at 37° C. in an incubator containing 5% CO2. The cells could be tested after being cultured for 24 h.
(§3) The cells cultured for 24 h were taken out from the incubator. The culture liquid in the well plate was sucked out, and 200 μL of compound solution prepared in the culture medium containing 10% fetal calf serum was added in each well. Five parallel mediums were provided for each concentration, and a DMSO culture medium was used as negative control. The culture mediums were cultured for 72 h at 37° C. in an incubator containing 5% CO2, and CCK-8 detection was performed.
(§4) A serum-free culture medium and CCK-8 solution were prepared, and CCK-8 working solution was prepared at a ratio of 10:1 (this process should be performed in dark place).
(§5) The cells cultured for 72 h were taken out from the incubator. The culture liquid in the well plate was sucked out, and 120 μL of the CCK-8 working solution was added in each well. A well plate without cells was also added with 120 μL of the CCK-8 working solution to serve as blank control. The well plates were cultured for 1 h at 37° C. in an incubator containing 5% CO2 (this process should be performed in dark place).
(§6) The well plates were taken out from the incubator, 100 μL of solution in each well was sucked out and added in a new 96-well plate, and the absorbance was measured at 450 nm (this process should be performed in dark place).
(§7) where Tx is the absorbance of the CCK-8 after the compound acts for 72 h;
(§8) C is the absorbance of the CCK-8 after the negative control wells are cultured for 72 h; and
(§9) B is the absorbance of the CCK-8 in the blank control wells.
(§10) The test results of the compounds prepared according to the embodiments during the measurement are shown in Table 3, wherein the measured highest EC50 of the compounds during one operation or multiple operations is classified according to the following description: […]

HDAC 1 = HDAC 1 (Homo sapiens, UniProt Q13547); assay: Enzyme activity detection of histone deacetylase 1 (fluorogenic substrate deacetylation); format: biochemical; conditions: 0.28 ng/μL HDAC 1, 10 μM substrate; IC50 class
From the text: During the deacetylation detection of a substrate, the HDAC inhibition activity of the compound of the present invention was detected.
C: Enzyme Activity Detection of Histone Deacetylase 1
Acetyl on the substrate was removed by the HDAC 1, so that the substrate was activated, and the developing liquid added subsequently could act on the substrate to release the fluorescent group. The size of the fluorescence signal reflected the activity of the HDAC 1. The IC50 detection method for this enzyme was disclosed in Chuping Xu, Elisabetta Soragni Improved Histone Deacetylase Inhibitors as Therapeutics for the Neurdegenerative Disease Friedreich's Ataxia: A New Synthetic Route. The total reaction system (100 μL/well) contained 0.28 ng/μL of HDAC 1, 10 μM of the substrate and the compound in different concentrations. The fluorescence signal was detected online at Ex/Em=360/460. The inhibition effect of the compound was determined from the obtained data, a concentration response curve was obtained by using the inhibition effect and the concentration of the compound, and the value of IC50 was fitted according to a four-parameter model.
The activities of the compounds prepared in the embodiments against the histone deacetylases 1, 3 and 6 (i.e., HDAC 1, HDAC 3 and HDAC 6) were detected by the above methods, and the test results were shown in Table 2, where the measurements of IC50 of the compounds were classified according to the following description: […]

HepG2 cells = assay: Cell growth inhibition measurement (CCK-8), HepG2; format: cell-based; conditions: Homo sapiens, HepG2, 72 h, highest EC50 measured during one or multiple operations, read-out: Inhibition activity against cancer cells, HepG2 (EC50)
From the text: as §1, §2, §3, §4, §5, §6, §7, §8, §9, §10

HDAC 1, sequence (Q13547 whole entry, species assumed): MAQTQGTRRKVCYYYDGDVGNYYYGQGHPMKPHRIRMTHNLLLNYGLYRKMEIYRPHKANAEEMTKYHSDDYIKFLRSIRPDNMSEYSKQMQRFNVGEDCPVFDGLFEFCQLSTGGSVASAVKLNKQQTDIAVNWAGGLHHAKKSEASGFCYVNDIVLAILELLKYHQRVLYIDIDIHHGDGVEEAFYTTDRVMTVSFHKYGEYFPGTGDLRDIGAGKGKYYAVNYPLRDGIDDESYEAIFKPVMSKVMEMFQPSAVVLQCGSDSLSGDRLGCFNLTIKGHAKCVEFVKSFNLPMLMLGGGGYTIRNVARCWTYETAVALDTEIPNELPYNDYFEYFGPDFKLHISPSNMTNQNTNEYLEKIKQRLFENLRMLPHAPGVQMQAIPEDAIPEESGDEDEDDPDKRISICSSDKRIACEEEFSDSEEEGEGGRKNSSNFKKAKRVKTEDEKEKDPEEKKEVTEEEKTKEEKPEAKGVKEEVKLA

EC50 (HCT-116 cells): < 100 nM
IC50 (HDAC 1): < 100 nM
EC50 (HepG2 cells): < 100 nM
Structure (SMILES): CN1CCN(c2ccc(-c3ccc(S(=O)(=O)N4CC=C(C(=O)NO)CC4)cc3)cc2)CC1 [Compound 29, N-hydroxyl-1-((4′-(4-methylpiperazinyl)-[1,1′-biphenyl]-4-yl)sulfonyl)-1,2,3,6-tetrahydropyridine-4-formamide]
